From ChEMBL document CHEMBL1125732, “Synthesis and benzodiazepine binding activity of a series of novel [1,2,4]triazolo[1,5-c]quinazolin-5(6H)-ones” (J Med Chem, 1991)

Experiments:
[1] = target: T1, GABA-A receptor; anion channel (Mus musculus) (UniProt Q8BHJ7+P26048+Q8QZW7+P50571+Q9R0Y8+P22723+A2AMW3+P62812+Q9JLF1+P26049+P22933+Q9D6F4+P63080+P27681+P16305); test: In vivo percentage inhibition of flunitrazepam binding to Benzodiazepine receptor in mouse fore brain at 30 mg/Kg.; assay type: organism-based
[2] = target: GABA-A receptor; anion channel; test: Binding affinity at Benzodiazepine receptor of rat forebrain by [3H]- flunitrazepam displacement.
[3] = target: GABA-A receptor; anion channel; test: Displacement of [3H]- Diazepam from GABA-A Benzodiazepine receptor of rat forebrain
[4] = test system: Rattus norvegicus; test: Antagonism of Diazepam anti-convulsive effects in rats treated with metrazole ip dose at 0.3mg/kg, 6/6 rats affected; assay type: functional
[5] = species on record: Rattus norvegicus; test: Antagonism of diazepam-induced rotarod deficit after peroral dose in rats; assay type: functional; conditions: po
[6] = test system: Rattus norvegicus; test: Antagonism of diazepam-induced rotarod deficit on ip dose in rats; assay type: functional
[7] = test system: Rattus norvegicus; test: Antagonism of Diazepam anti-convulsive effects in rats treated with metrazole ip dose at 3mg/kg, 2/6 rats affected; assay type: functional
[8] = test system: Rattus norvegicus; test: Antagonism of Diazepam anti-convulsive effects in rats treated with metrazole ip dose at 1 mg/kg, 3/6 rats affected; assay type: functional; conditions: route intraperitoneal
[9] = test system: Rattus norvegicus; test: Antagonism of Diazepam anti-convulsive effects in rats treated with metrazole ip dose at 30 mg/kg, 0/6 rats affected; assay type: functional; conditions: route intraperitoneal
[10] = test system: Rattus norvegicus; test: Antagonism of Diazepam anti-convulsive effects in rats treated with metrazole ip dose at 10 mg/kg, 0/6 rats affected; assay type: functional; conditions: route intraperitoneal
[11] = test system: Rattus norvegicus; test: Antagonism of Diazepam anti-convulsive effects in rats treated with metrazole ip dose at 0.3 mg/kg, 5/6 rats affected; assay type: functional; conditions: route intraperitoneal
[12] = test system: Rattus norvegicus; test: Antagonism of Diazepam anti-convulsive effects in rats treated with metrazole ip dose at 1 mg/kg in rats, 1/6 rats affected; assay type: functional; conditions: route intraperitoneal
[13] = target: GABA-A receptor; anion channel; test: Displacement of [3H]diazepam from GABA-A Benzodiazepine receptor of rat forebrain
[14] = target: GABA-A receptor; anion channel; test: Displacement of [3H]flunitrazepam from GABA-A Benzodiazepine receptor of rat forebrain
[15] = species on record: Rattus norvegicus; test: Antagonism of diazepam-induced discriminative stimuli in rats by peroral dose; assay type: functional; conditions: po
[16] = test system: Rattus norvegicus; test: Antagonism of Diazepam anti-convulsive effects in rats treated with metrazole ip dose at 1 mg/kg, 5/6 rats affected; assay type: functional; conditions: route intraperitoneal
[17] = species on record: Rattus norvegicus; test: Antagonism of diazepam-induced rotarod deficit on peroral dose in rats; assay type: functional; conditions: po
[18] = test system: Rattus norvegicus; test: Antagonism of Diazepam anti-convulsive effects in rats treated with metrazole ip dose at 20 mg/kg, 0/6 rats affected; assay type: functional; conditions: route intraperitoneal
[19] = test system: Rattus norvegicus; test: Antagonism of Diazepam anti-convulsive effects in rats treated with metrazole ip dose at 3mg/kg, 1/6 rats affected; assay type: functional
[20] = target: T1, GABA-A receptor; anion channel (Mus musculus); conditions: 30 mg/kg
Description: In vivo percentage inhibition of flunitrazepam binding to mouse fore brain at 30 mg/kg

[21] = test system: Rattus norvegicus; test: Antagonism of Diazepam anti-convulsive effects in rats treated with metrazole ip dose at 1 mg/kg, 2/6 rats affected; assay type: functional; conditions: route intraperitoneal
[22] = test system: Rattus norvegicus; test: Antagonism of diazepam-induced discriminative stimuli in rats by ip dose; assay type: functional

Row | SMILES | inhibition [1] | IC50 [2] | IC50 [3] | further results
1 | Cc1ccc(-c2nc3c4cc(Cl)ccc4nc(O)n3n2)cc1 | 63% | 200 nM |  | 
2 | COc1ccc(-c2nc3c4cc(Cl)ccc4nc(O)n3n2)cc1 |  | 3 nM |  | 
3 | Oc1nc2ccccc2c2nc(-c3ccncc3)nn12 | 19% |  |  | 
4 | Cn1c(=O)n2nc(-c3cccnc3)nc2c2ccccc21 |  |  | > 10000 nM | 
5 | Oc1nc2ccc(Cl)cc2c2nc(-c3ccc(C(F)(F)F)cc3)nn12 |  | > 1000 nM |  | 
6 | Oc1nc2ccc(Cl)cc2c2nc(-c3ccccc3)nn12 | 72% | 8 nM |  | Antagonist effect [4]: 6; ED50 [5]: 2.8 mg/kg; ED50 [6]: 26 mg/kg; Antagonist effect [7]: 2; Antagonist effect [8]: 3; Antagonist effect [9]: 0; Antagonist effect [10]: 0
7 | Oc1nc2ccc(Cl)cc2c2nc(-c3ccccn3)nn12 |  |  | 100 nM | 
8 | COc1cc(-c2nc3c4cc(Cl)ccc4nc(O)n3n2)cc(OC)c1OC |  | > 1000 nM |  | 
9 | Oc1nc2ccc(Cl)cc2c2nc(C3CCCO3)nn12 (centres undefined) |  | > 100 nM |  | 
10 | CN1CCCC(c2nc3c4cc(Cl)ccc4nc(O)n3n2)C1 (centres undefined) |  | > 1000 nM |  | 
11 | Oc1nc2ccc(Cl)cc2c2nc(-c3cccc(F)c3)nn12 | 31% | 4 nM |  | Antagonist effect [11]: 5; ED50 [6]: > 30 mg/kg; Antagonist effect [7]: 2; Antagonist effect [9]: 0; Antagonist effect [12]: 1; Antagonist effect [10]: 0
12 | Oc1nc2ccccc2c2nc(-c3ccc(Cl)cc3)nn12 |  |  | > 10000 nM | 
13 | CN1C(=O)CN=C(c2ccccc2F)c2cc([N+](=O)[O-])ccc21 [FLUNITRAZEPAM] |  |  |  | IC50 [13]: 1.5 nM
14 | Cn1c(=O)n2nc(C(F)(F)F)nc2c2ccccc21 |  |  | > 1000 nM | 
15 | Oc1nc2ccc(Cl)cc2c2nc(-c3ccco3)nn12 | 15% | 0.6 nM |  | 
16 | Oc1nc2ccc(Cl)cc2c2nc(-c3cccnc3)nn12 | 24% |  | 10 nM | 

Row | SMILES | inhibition [1] | IC50 [2] | IC50 [3] | further results
17 | Oc1ccc(-c2nc3c4cc(Cl)ccc4nc(O)n3n2)cc1 | 0% | 0.3 nM |  | 
18 | Oc1nc2ccccc2c2nc(-c3ccccc3F)nn12 | 41% | 0.4 nM |  | 
19 | O=C1C2C=Nc3ccccc3C2=NN1c1ccccc1 (centres undefined) [CGS-8216] |  |  |  | IC50 [14]: 4.4 nM; ED50 [15]: 1.61 mg/kg; Antagonist effect [16]: 5; ED50 [17]: 0.6 mg/kg; Antagonist effect [18]: 0; Antagonist effect [19]: 1; IC50 [13]: 0.3 nM; inhibition [20]: 90%; Antagonist effect [10]: 0
20 | Oc1nc2ccc(Cl)cc2c2nc(-c3ccccc3F)nn12 | 76% | 0.4 nM |  | Antagonist effect [4]: 6; ED50 [15]: 6.51 mg/kg; ED50 [5]: 5.5 mg/kg; ED50 [6]: 6.92 mg/kg; Antagonist effect [21]: 2; Antagonist effect [7]: 2; Antagonist effect [9]: 0; Antagonist effect [10]: 0; ED50 [22]: 2.99 mg/kg
21 | Cn1c(=O)n2nc(-c3ccccc3)nc2c2ccccc21 | 55% |  | 350 nM | 
22 | O=c1[nH]c2ccccc2c2nc(-c3ccncc3)nn12 |  |  | 200 nM | 
23 | OCc1nc2c3ccccc3nc(O)n2n1 | 0% | > 100 nM |  | 
24 | Oc1nc2ccccc2c2nc(C(F)(F)F)nn12 |  |  | > 1000 nM | 
25 | Oc1nc2ccc(Cl)cc2c2nc(-c3cccs3)nn12 | 21% | 0.6 nM |  | 
26 | Oc1nc2ccc(Cl)cc2c2nc(Cc3ccccc3)nn12 | 0% | 100 nM |  | 
27 | Oc1nc2c(Cl)cc(Cl)cc2c2nc(-c3ccccc3)nn12 | 6% |  | 200 nM | 
28 | Oc1nc2ccccc2c2nc(-c3ccccc3)nn12 | 55% |  | 4 nM | 
29 | Oc1nc2ccc(Cl)cc2c2nc(-c3ccc(F)cc3)nn12 | 52% | 20 nM |  | 
30 | Oc1nc2ccccc2c2nc(-c3cccnc3)nn12 | 48% |  | 130 nM | 
31 | CCOc1nc2c3ccccc3nc(O)n2n1 | 0% | 2.5 nM |  | 
32 | Oc1nc2ccc(Cl)cc2c2nc(-c3ccoc3)nn12 |  | 3.5 nM |  | 
